Results taken from US20200031825A1, “HETEROAROMATIC-FUSED IMIDAZOLYL AMIDES, COMPOSITIONS AND USES THEREOF AS STING AGONISTS” (Trillium Therapeutics Inc., priority 2018, published 2020).
pEC50: −log10 of the molar value. Where two headings read alike, the source gives them in different places.

How the values were obtained:
Type in all cases: cell-based
[1] = test system: human monocyte-derived macrophages (h-MDMs); assay: Cellular Functional Assay II: secreted IFN-β from human monocyte-derived macrophages; settings: h-MDM
Experimental: (§1) Activation of STING in primary cells was determined by measuring levels of secreted IFN-β from human monocyte-derived macrophages (h-MDMs)/dendritic cells (h-DCs) and/or mouse dendritic cells (m-DCs) after treatment with A.
(§2) Human CD14+ cells were first isolated from human peripheral blood mononuclear cells (PBMCs) with Stemcell Easysep Monocyte Isolation™ kit. Human CD14+ cells were kept in conditioned media for 7-12 days to generate h-MDMs and h-DCs before use. After harvesting from C57BL/6 mouse femurs, bone marrow cells were culture in conditioned media for 7 days to generate m-DCs before use.
(§3) The Culture conditions for the various types of cells whereas noted in Table 2:
(§4) 0.5×10^6 cells in 50 ul buffer (50 mM HEPES, pH7.0; 100 mM KCl; 3 mM MgCl2, 0.1 mM DTT; 85 mM Sucrose; 0.2% BSA, 1 mM ATP) in 96-well round bottom plate. Compound (formulated in DMSO) or DMSO (control) were added into each well and the plate incubate at 37° C. for 30 minutes. Cells were washed twice with 100 uL of fresh media and incubated at 37° C. for an additional 6 hours. After 6 hour of incubation, the supernatant was collected and a Cytometry Bead Assay™ (CBA, BioLegend) was used to measure […] levels.

[2] = test system: human dendritic cells (h-DCs); assay: Cellular Functional Assay II: secreted IFN-β from human dendritic cells; settings: h-DC
Experimental: as §1, §2, §3, §4

[3] = test system: mouse dendritic cells (m-DCs); assay: Cellular Functional Assay II: secreted IFN-β from mouse dendritic cells; settings: m-DC
Experimental: as §1, §2, §3, §4

hSTING-wt = hSTING-wt (Homo sapiens, UniProt Q86WV6); assay: Cellular Functional Assay I: ISRE-SEAP reporter in HEK-293T-Dual Null cells transfected with hSTING-wt; settings: HEK-293T-Dual Null, hSTING-wt
Chain of hSTING-wt (Q86WV6 whole entry H232R): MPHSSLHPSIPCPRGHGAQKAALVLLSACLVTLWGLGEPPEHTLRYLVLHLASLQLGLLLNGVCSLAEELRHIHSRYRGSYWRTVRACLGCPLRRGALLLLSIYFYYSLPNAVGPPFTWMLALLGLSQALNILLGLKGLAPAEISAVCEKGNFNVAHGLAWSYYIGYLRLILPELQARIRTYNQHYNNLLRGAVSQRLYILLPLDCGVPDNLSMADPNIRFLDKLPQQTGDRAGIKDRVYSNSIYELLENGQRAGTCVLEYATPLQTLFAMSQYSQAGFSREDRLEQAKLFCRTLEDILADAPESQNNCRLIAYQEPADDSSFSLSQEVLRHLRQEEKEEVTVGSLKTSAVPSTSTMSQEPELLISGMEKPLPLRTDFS

hSTING-H232 = hSTING-H232 (Homo sapiens, UniProt Q86WV6); assay: Cellular Functional Assay I: ISRE-SEAP reporter in HEK-293T-Dual Null cells transfected with hSTING-H232; settings: HEK-293T-Dual Null, hSTING-H232
Chain of hSTING-H232 (Q86WV6 whole entry): as the sequence (Q86WV6 whole entry H232R) above, with R232H counted along it

hSTING-HAQ = hSTING-HAQ (Homo sapiens, UniProt Q86WV6, G230A/H232R/R293Q/R71H); assay: Cellular Functional Assay I: ISRE-SEAP reporter in HEK-293T-Dual Null cells transfected with hSTING-HAQ; settings: HEK-293T-Dual Null, hSTING-HAQ
Chain of hSTING-HAQ (Q86WV6 whole entry R71H/G230A/H232R/R293Q): as the sequence (Q86WV6 whole entry H232R) above, with R71H, G230A, R293Q counted along it

hSTING-AQ = biological target: T1, hSTING-AQ (Homo sapiens, UniProt Q86WV6, G230A/R293Q); assay: Cellular Functional Assay I: ISRE-SEAP reporter, hSTING-AQ allele
T1 construct: expressed in transfected cells
T1 sequence (Q86WV6 whole entry G230A/H232R/R293Q): as the sequence (Q86WV6 whole entry H232R) above, with G230A, R293Q counted along it

hSTING-Q = biological target: T2, hSTING-Q (Homo sapiens, UniProt Q86WV6, R293Q); assay: Cellular Functional Assay I: ISRE-SEAP reporter, hSTING-Q allele
T2 construct: expressed in transfected cells
T2 sequence (Q86WV6 whole entry R293Q): as the sequence (Q86WV6 whole entry H232R) above, with R232H, R293Q counted along it

mSTING-wt = biological target: T3, mSTING-wt (Mus musculus, UniProt Q3TBT3); assay: Cellular Functional Assay I: ISRE-SEAP reporter in HEK-293T-Dual Null cells transfected with mouse STING; settings: SEAP reporter, HEK-293T-Dual Null, mSTING-wt; read-out: EC50 mSTING-wt
T3 sequence (Q3TBT3 1-378): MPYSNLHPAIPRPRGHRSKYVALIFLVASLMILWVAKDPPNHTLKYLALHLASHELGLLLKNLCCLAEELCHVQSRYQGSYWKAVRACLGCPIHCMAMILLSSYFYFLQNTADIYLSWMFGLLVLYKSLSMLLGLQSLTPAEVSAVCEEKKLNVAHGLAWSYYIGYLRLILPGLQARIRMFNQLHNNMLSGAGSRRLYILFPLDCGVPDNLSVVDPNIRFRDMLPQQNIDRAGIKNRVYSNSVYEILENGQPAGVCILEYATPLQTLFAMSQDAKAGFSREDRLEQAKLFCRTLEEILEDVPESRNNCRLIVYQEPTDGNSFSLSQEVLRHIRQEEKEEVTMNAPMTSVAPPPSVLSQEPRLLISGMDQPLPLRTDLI

human PBMCs = assay: Cellular Functional Assay III: IFN-β production from human PBMCs; settings: PBMC
Experimental: Frozen human PBMCs (BioIVT Inc.) were thawed first in a 37° C. water bath, then washed with RPMI/10% FBS/2 mM EDTA medium twice before establishing a viable cell count by Trypan Blue. The final cell density for each donor was 5×10^6 cells per well with RPMI/10% FBS medium in a 96 well u-bottom plate.
Human PBMCs were then incubated with testing compounds with indicated concentrations and control for 4 hours at 37° C. in cell culture incubator. After incubation, supernatant was collected and used for measuring induced cytokine level by cytometric bead array analysis.

[4] = Donor 1, 4 hours, read-out: Potency (IFN-β production) in Human PBMCs (EC50s) Donor 1
[5] = Donor 2, 4 hours, read-out: Potency (IFN-β production) in Human PBMCs (EC50s) Donor 2
[6] = Donor 3, 4 hours, read-out: Potency (IFN-β production) in Human PBMCs (EC50s) Donor 3
[7] = Donor 4, 4 hours, read-out: Potency (IFN-β production) in Human PBMCs (EC50s) Donor 4

Row | Structure (SMILES) | IFN-β level ([1]; 0.1 uM) | IFN-β level ([1]; 1 uM) | IFN-β level ([1]; 10 uM) | IFN-β level ([2]; 0.1 uM) | IFN-β level ([2]; 10 uM) | IFN-β level ([3]; 0.1 uM) [pg/mL] | IFN-β level ([3]; 1 uM) | IFN-β level ([3]; 10 uM) | pEC50 (hSTING-wt) | pEC50 (hSTING-H232) | pEC50 (hSTING-HAQ) | pEC50 (hSTING-AQ) | pEC50 (hSTING-Q) | pEC50 (mSTING-wt) | pEC50 (human PBMCs; [4]) | pEC50 (human PBMCs; [5]) | pEC50 (human PBMCs; [6]) | pEC50 (human PBMCs; [7])
1 | Nc1nc2c(ncn2[C@@H]2O[C@@H]3COP(=O)(O)O[C@H]4[C@@H](O)[C@H](n5cnc6c(N)ncnc65)O[C@@H]4COP(=O)(O)O[C@@H]2[C@@H]3O)c(=O)[nH]1 [2′3-cGAMP, reference compound] | <10 pg/mL | <20 pg/mL | <50 pg/mL | <10 pg/mL | <50 pg/mL | <300 | <1,000 pg/ml | <3,000 pg/ml |  |  |  |  |  |  |  |  |  | 
2 | CCn1nc(C)cc1C(=O)Nc1nc2cc(C(N)=O)cnc2n1C/C=C/Cn1c(NC(=O)c2cc(C)nn2CC)nc2cc(C(N)=O)cc(OC)c21 [Compound A, 3-[(E)-4-[5-carbamoyl-2-[(2-ethyl-5-methyl-pyrazole-3-carbonyl)amino]-7-methoxy-benzimidazol-1-yl]but-2-enyl]-2-[(2-ethyl-5-methyl-pyrazole-3-carbonyl)amino]imidazo[4,5-b]pyridine-6-carboxamide] | >1,000 pg/ml | >1,000 pg/ml | >1,000 pg/ml | >5,000 pg/ml | >15,000 pg/ml | >100 | >10,000 pg/ml | >50,000 pg/ml | > 9.00 | > 9.00 | 6.30 to 9.00 | 6.30 to 9.00 | 6.30 to 9.00 | > 9.00 |  |  |  | 
3 | CCn1nc(C)cc1C(=O)Nc1nc2cc(C(N)=O)cnc2n1C/C=C/Cn1c(NC(=O)c2cc(C)nn2CC)nc2cc(C(N)=O)cc(OCCCN3CCOCC3)c21 [Compound T, 3-[(E)-4-[5-carbamoyl-2-[(2-ethyl-5-methyl-pyrazole-3-carbonyl)amino]-7-(3-morpholinopropoxy)benzimidazol-1-yl]but-2-enyl]-2-[(2-ethyl-5-methyl-pyrazole-3-carbonyl)amino]imidazo[4,5-b]pyridine-6-carboxamide] |  |  |  |  |  |  |  |  | 6.30 to 9.00 | 6.30 to 9.00 | 6.30 to 9.00 | 6.30 to 9.00 | 6.30 to 9.00 | 6.30 to 9.00 | 6.30 to 7.00 | > 7.00 | > 7.00 | 6.30 to 7.00
4 | [2H]C1([2H])OC([2H])([2H])C([2H])([2H])N(CCCOc2cc(C(N)=O)cc3nc(NC(=O)c4cc(C)nn4CC)n(C/C=C/Cn4c(NC(=O)c5cc(C)nn5CC)nc5cc(C(N)=O)cnc54)c23)C1([2H])[2H] [Compound W, 3-[(E)-4-[5-carbamoyl-2-[(2-ethyl-5-methyl-pyrazole-3-carbonyl)amino]-7-[3-(2,2,3,3,5,5,6,6-octadeuteriomorpholin-4-yl)propoxy]benzimidazol-1-yl]but-2-enyl]-2-[(2-ethyl-5-methyl-pyrazole-3-carbonyl)amino]imidazo[4,5-b]pyridine-6-carboxamide] |  |  |  |  |  |  |  |  | 6.30 to 9.00 | 6.30 to 9.00 | 6.30 to 9.00 | 6.30 to 9.00 | 6.30 to 9.00 | 6.30 to 9.00 | 6.30 to 7.00 | 6.30 to 7.00 | > 7.00 | 6.30 to 7.00
5 | CCn1nc(C)cc1C(=O)Nc1nc2cc(C(N)=O)cnc2n1C/C=C/Cn1c(NC(=O)c2cc(C)nn2CC)nc2cc(C(N)=O)cc(OCCCN3CCN(C(C)=O)CC3)c21 [Compound X, 3-[(E)-4-[7-[3-(4-acetylpiperazin-1-yl)propoxy]-5-carbamoyl-2-[(2-ethyl-5-methyl-pyrazole-3-carbonyl)amino]benzimidazol-1-yl]but-2-enyl]-2-[(2-ethyl-5-methyl-pyrazole-3-carbonyl)amino]imidazo[4,5-b]pyridine-6-carboxamide] |  |  |  |  |  |  |  |  | 6.30 to 9.00 | 6.30 to 9.00 | 6.30 to 9.00 | 6.30 to 9.00 | 6.30 to 9.00 | 6.30 to 9.00 | 6.30 to 7.00 | 6.30 to 7.00 | 6.30 to 7.00 | 6.30 to 7.00
6 | CCn1nc(C)cc1C(=O)Nc1nc2cc(C(N)=O)cnc2n1C/C=C/Cn1c(NC(=O)c2cc(C)nn2CC)nc2cc(C(N)=O)cc(OCCCN3CCC[C@H]3COC(F)F)c21 [Compound Y, 3-[(E)-4-[5-carbamoyl-7-[3-[(2S)-2-(difluoromethoxymethyl)pyrrolidin-1-yl]propoxy]-2-[(2-ethyl-5-methyl-pyrazole-3-carbonyl)amino]benzimidazol-1-yl]but-2-enyl]-2-[(2-ethyl-5-methyl-pyrazole-3-carbonyl)amino]imidazo[4,5-b]pyridine-6-carboxamide] |  |  |  |  |  |  |  |  | > 9.00 | > 9.00 | 6.30 to 9.00 | 6.30 to 9.00 | 6.30 to 9.00 | 6.30 to 9.00 | > 7.00 | > 7.00 | > 7.00 | > 7.00
7 | CCn1nc(C)cc1C(=O)Nc1nc2cc(C(N)=O)cnc2n1C/C=C/Cn1c(NC(=O)c2cc(C)nn2CC)nc2cc(C(N)=O)cc(OCCCN3CCCOCC3)c21 [Compound Z, 3-[(E)-4-[5-carbamoyl-2-[(2-ethyl-5-methyl-pyrazole-3-carbonyl)amino]-7-[3-(1,4-oxazepan-4-yl)propoxy]benzimidazol-1-yl]but-2-enyl]-2-[(2-ethyl-5-methyl-pyrazole-3-carbonyl)amino]imidazo[4,5-b]pyridine-6-carboxamide] |  |  |  |  |  |  |  |  | 6.30 to 9.00 | 6.30 to 9.00 | 6.30 to 9.00 | 6.30 to 9.00 | 6.30 to 9.00 | 6.30 to 9.00 |  |  |  | 
